In patent publication US20120101160A1, “Use of chemical chaperones to treat glaucoma caused by misfolded or misprocessed proteins” (Alcon, Inc., priority 2004, published 2012):

What was measured:
mutant (Q368X) myocilin = target: T1, mutant (Q368X) myocilin (Homo sapiens, UniProt Q99972); experiment: secretion of mutant myocilin in cultured CHO cells (Western blot of media and lysates); format: cell-based; settings: CHO stable transfectants expressing Q368X myocilin; overnight incubation with chemical chaperone; glycerol 10%; E and I lanes; FIG. 1/FIG. 2
T1 construct: expressed in transfected cells
T1 sequence (Q99972 33-367 limits assumed): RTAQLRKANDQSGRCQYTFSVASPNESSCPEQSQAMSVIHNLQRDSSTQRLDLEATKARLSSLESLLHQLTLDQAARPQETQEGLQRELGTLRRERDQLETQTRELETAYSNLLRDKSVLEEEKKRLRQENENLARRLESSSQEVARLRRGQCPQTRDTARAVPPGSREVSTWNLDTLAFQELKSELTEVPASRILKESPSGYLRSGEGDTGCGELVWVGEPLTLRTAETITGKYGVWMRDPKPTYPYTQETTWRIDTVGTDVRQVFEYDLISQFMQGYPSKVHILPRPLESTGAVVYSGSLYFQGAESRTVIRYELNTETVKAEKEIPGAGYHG
Source text: (§1) Wild-type myocilin is normally expressed and secreted from the human TM, whereas mutant disease-causing myocilin is retained intracellularly (Jacobson, Andrews et al. 2001). […] We tested several compounds for their ability to effect secretion of mutant myocilin in cultured CHO cells that were engineered for their ability to express, but not secrete, mutant (Y437H or Q368X) myocilin. Plasmids expressing wild-type or mutant myocilin were generated as described (Jacobson, Andrews et al. 2001).
(§2) CHO stable transfectants were grown in F12K media containing 10% FBS supplemented with penicillin-streptomycin-glutamine. Stable transfectants were generated by transfection with lipofectamine plus (Invitrogen) followed by limiting dilution plating and selection in G-418 (600 ug/ml). CHO cells were incubated with serum-free media 24 h post-transfection and media or cell lysates were collected after overnight incubation with the chemical chaperone. Equivalent cell lysate protein amounts (5 ug) were loaded for SDS-PAGE analysis. Cell media was not concentrated and was loaded at 16 ul per lane for SDS-PAGE/Western blot analysis.
(§3) Cells were rinsed with PBS and solubilized in a commercial mammalian extraction buffer (M-Per™; Pierce, Rockford, Ill.) supplemented with a protease inhibitor cocktail (Complete, EDTA-free; Boehringer Mannheim, Indianapolis, Ind.) followed by centrifugation at 12,000×g for 5 min. Protein concentration of the supernatant was determined with Coomasie Plus Protein Assay Reagent (Pierce). Cell extracts were stored at −20° C.
(§4) Cell media or extracts were analyzed using pre-cast NuPAGE polyacrylamide gels and the Novex gel electrophoresis system (Novex, San Diego, Calif.). Proteins were electroblotted to Hybond-P PVDF membranes (Amersham Pharmacia Biotech, Piscataway, N.J.), blocked with gelatin, and probed with affinity purified rabbit anti-MYOC antibody 129 (generated to myocilin peptide 156-171) (Jacobson, Andrews et al. 2001) and an anti-rabbit IgG secondary antibody (Amersham). Immunoreactivity was detected with the ECL Plus detection system (Amersham). Blots were exposed to BioMax MR film (Eastman Kodak, Rochester, N.Y.) and scanned with a Hewlett-Packard ScanJet ADF scanner (Hewlett Packard, Boise, Id.) for figure presentation.

mutant (Y437H) myocilin = target: T2, mutant (Y437H) myocilin (Homo sapiens, UniProt Q99972, Y437H); experiment: as above; format: cell-based; settings: CHO stable transfectants expressing Y437H myocilin; overnight incubation with chemical chaperone; glycerol 10%; E lane; FIG. 1/FIG. 2
T2 construct: expressed in transfected cells
T2 sequence (Q99972 33-504 Y437H): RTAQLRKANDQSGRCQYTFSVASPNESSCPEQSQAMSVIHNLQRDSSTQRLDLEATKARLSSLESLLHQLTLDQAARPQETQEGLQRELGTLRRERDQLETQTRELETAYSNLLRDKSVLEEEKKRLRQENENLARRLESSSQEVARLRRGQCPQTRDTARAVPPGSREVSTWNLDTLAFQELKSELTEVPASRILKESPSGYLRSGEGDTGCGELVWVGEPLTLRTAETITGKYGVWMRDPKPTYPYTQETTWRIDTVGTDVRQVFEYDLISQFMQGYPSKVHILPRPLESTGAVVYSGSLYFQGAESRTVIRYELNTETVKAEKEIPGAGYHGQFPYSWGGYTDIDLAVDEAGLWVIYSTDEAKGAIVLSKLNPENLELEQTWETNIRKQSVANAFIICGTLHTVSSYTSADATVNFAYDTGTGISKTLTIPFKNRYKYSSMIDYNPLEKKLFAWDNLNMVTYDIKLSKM
Source text: as §1, §2, §3, §4

[1] = target: ΔF508 cystic fibrosis transmembrane conductance regulator protein (CFTR) (Homo sapiens, UniProt P13569, DEL508-508); settings: cells expressing ΔF508 CFTR; similar to cells expressing the wild-type CFTR protein; cited from earlier work
Chain of ΔF508 cystic fibrosis transmembrane conductance regulator protein (CFTR) (P13569 with tags, fused parts or gaps DEL508-508): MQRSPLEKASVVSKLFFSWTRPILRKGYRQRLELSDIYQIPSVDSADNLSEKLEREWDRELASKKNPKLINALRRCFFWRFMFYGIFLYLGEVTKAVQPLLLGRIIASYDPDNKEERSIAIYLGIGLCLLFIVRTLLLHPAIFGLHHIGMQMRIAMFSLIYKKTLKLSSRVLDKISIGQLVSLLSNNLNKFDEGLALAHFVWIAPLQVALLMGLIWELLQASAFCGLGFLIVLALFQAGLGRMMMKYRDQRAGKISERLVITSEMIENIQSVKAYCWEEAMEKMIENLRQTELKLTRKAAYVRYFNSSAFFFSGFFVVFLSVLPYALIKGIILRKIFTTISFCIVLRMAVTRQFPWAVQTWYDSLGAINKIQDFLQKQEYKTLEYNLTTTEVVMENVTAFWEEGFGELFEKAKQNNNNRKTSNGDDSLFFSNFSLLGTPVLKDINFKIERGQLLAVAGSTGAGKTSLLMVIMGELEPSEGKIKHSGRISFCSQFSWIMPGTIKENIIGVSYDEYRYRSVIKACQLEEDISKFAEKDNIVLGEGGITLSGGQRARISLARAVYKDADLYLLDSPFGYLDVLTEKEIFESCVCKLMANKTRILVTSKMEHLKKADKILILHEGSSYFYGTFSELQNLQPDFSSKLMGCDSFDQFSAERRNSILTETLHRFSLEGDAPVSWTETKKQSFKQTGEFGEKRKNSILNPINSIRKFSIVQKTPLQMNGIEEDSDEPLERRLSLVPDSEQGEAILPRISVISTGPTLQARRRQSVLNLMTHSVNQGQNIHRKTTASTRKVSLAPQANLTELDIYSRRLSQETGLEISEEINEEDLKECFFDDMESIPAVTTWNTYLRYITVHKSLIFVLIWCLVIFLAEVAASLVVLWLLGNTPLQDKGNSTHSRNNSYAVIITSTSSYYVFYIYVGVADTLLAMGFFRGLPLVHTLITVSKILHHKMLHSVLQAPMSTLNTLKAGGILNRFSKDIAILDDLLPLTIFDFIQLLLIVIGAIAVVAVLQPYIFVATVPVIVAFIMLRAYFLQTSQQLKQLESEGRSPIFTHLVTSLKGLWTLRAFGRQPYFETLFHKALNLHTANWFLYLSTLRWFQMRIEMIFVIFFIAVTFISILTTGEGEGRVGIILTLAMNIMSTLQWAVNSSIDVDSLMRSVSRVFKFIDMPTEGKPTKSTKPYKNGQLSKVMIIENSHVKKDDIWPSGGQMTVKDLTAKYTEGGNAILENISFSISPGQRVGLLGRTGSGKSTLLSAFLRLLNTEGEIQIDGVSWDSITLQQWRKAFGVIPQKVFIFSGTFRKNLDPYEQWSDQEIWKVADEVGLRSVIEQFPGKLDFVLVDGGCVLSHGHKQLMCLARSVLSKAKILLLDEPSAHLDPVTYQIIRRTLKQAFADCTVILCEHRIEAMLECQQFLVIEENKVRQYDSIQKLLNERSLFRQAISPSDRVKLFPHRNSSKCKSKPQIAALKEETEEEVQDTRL

OCC(O)CO [Glycerol, glycerol]
ability to effect secretion of mutant myocilin (mutant (Q368X) myocilin): able to effect full-length myocilin secretion | ability to effect secretion of mutant myocilin (mutant (Y437H) myocilin): able to effect full-length myocilin secretion | restoration of forskolin-dependent chloride transport [1]: restored the ability of the mutant cells to exhibit forskolin-dependent chloride transport

[2H]O[2H] [deuterated water]
restoration of forskolin-dependent chloride transport [1]: restored the ability of the mutant cells to exhibit forskolin-dependent chloride transport

C[N+](C)(C)[O-] [trimethylamine N-oxide]
restoration of forskolin-dependent chloride transport [1]: restored the ability of the mutant cells to exhibit forskolin-dependent chloride transport

Gentamycin
ability to effect secretion of mutant myocilin (mutant (Q368X) myocilin): did not effect secretion of mutant myocilin | ability to effect secretion of mutant myocilin (mutant (Y437H) myocilin): did not effect secretion of mutant myocilin
